± gives the expanded uncertainty stated by the source.
Experiments:
[1] = 100 kPa, Liquid; for viscosity: Capillary tube (Ostwald / Ubbelohde) method; for mass density: Vibrating tube method
[2] = xn = mol fraction of the nth substance listed; settings: 100 kPa, Liquid; for viscosity: Capillary tube (Ostwald / Ubbelohde) method; for mass density: Vibrating tube method

SMILES: CCNCCO [2-(ethylamino)ethanol]
- viscosity ([1]; 293.15 K): 15.39 ± 0.34 mPa·s
- mass density ([1]; 293.15 K): 916.8 ± 3.7 kg/m3
- viscosity ([1]; 303.15 K): 9.65 ± 0.22 mPa·s
- mass density ([1]; 303.15 K): 909.7 ± 3.6 kg/m3
- viscosity ([1]; 313.15 K): 6.64 ± 0.15 mPa·s
- mass density ([1]; 313.15 K): 901.3 ± 3.6 kg/m3
- viscosity ([1]; 323.15 K): 4.53 ± 0.1 mPa·s
- mass density ([1]; 323.15 K): 894.7 ± 3.6 kg/m3
- viscosity ([1]; 333.15 K): 3.36 ± 0.07 mPa·s
- mass density ([1]; 333.15 K): 887.2 ± 3.6 kg/m3

SMILES: CCNCCO [2-(ethylamino)ethanol] + CCN(CC)CCO
- viscosity ([2]; 293.15 K, x2 = 0): 15.39 ± 0.34 mPa·s
- viscosity ([2]; 293.15 K, x2 = 0.2): 12.19 ± 0.27 mPa·s
- viscosity ([2]; 293.15 K, x2 = 0.4): 9.87 ± 0.22 mPa·s
- viscosity ([2]; 293.15 K, x2 = 0.6): 8.04 ± 0.18 mPa·s
- viscosity ([2]; 293.15 K, x2 = 0.8): 6.36 ± 0.14 mPa·s
- mass density ([2]; 293.15 K, x2 = 0): 916.8 ± 3.7 kg/m3
- mass density ([2]; 293.15 K, x2 = 0.2): 910 ± 3.6 kg/m3
- mass density ([2]; 293.15 K, x2 = 0.4): 903 ± 3.6 kg/m3
- mass density ([2]; 293.15 K, x2 = 0.6): 897 ± 3.6 kg/m3
- mass density ([2]; 293.15 K, x2 = 0.8): 889.7 ± 3.6 kg/m3
- viscosity ([2]; 303.15 K, x2 = 0): 9.65 ± 0.22 mPa·s
- viscosity ([2]; 303.15 K, x2 = 0.2): 7.84 ± 0.18 mPa·s
- viscosity ([2]; 303.15 K, x2 = 0.4): 6.51 ± 0.15 mPa·s
- viscosity ([2]; 303.15 K, x2 = 0.6): 5.4 ± 0.12 mPa·s
- viscosity ([2]; 303.15 K, x2 = 0.8): 4.36 ± 0.1 mPa·s
- mass density ([2]; 303.15 K, x2 = 0): 909.7 ± 3.6 kg/m3
- mass density ([2]; 303.15 K, x2 = 0.2): 903 ± 3.6 kg/m3
- mass density ([2]; 303.15 K, x2 = 0.4): 895.5 ± 3.6 kg/m3
- mass density ([2]; 303.15 K, x2 = 0.6): 889 ± 3.6 kg/m3
- mass density ([2]; 303.15 K, x2 = 0.8): 881.6 ± 3.5 kg/m3
- viscosity ([2]; 313.15 K, x2 = 0): 6.64 ± 0.15 mPa·s
- viscosity ([2]; 313.15 K, x2 = 0.2): 5.35 ± 0.12 mPa·s
- viscosity ([2]; 313.15 K, x2 = 0.4): 4.5 ± 0.1 mPa·s
- viscosity ([2]; 313.15 K, x2 = 0.6): 3.78 ± 0.08 mPa·s
- viscosity ([2]; 313.15 K, x2 = 0.8): 3.11 ± 0.07 mPa·s
- mass density ([2]; 313.15 K, x2 = 0): 901.3 ± 3.6 kg/m3
- mass density ([2]; 313.15 K, x2 = 0.2): 894.8 ± 3.6 kg/m3
- mass density ([2]; 313.15 K, x2 = 0.4): 887.6 ± 3.6 kg/m3
- mass density ([2]; 313.15 K, x2 = 0.6): 880.2 ± 3.5 kg/m3
- mass density ([2]; 313.15 K, x2 = 0.8): 873 ± 3.5 kg/m3
- viscosity ([2]; 323.15 K, x2 = 0): 4.53 ± 0.1 mPa·s
- viscosity ([2]; 323.15 K, x2 = 0.2): 3.85 ± 0.08 mPa·s
- viscosity ([2]; 323.15 K, x2 = 0.4): 3.3 ± 0.07 mPa·s
- viscosity ([2]; 323.15 K, x2 = 0.6): 2.8 ± 0.06 mPa·s
- viscosity ([2]; 323.15 K, x2 = 0.8): 2.31 ± 0.05 mPa·s
- mass density ([2]; 323.15 K, x2 = 0): 894.7 ± 3.6 kg/m3
- mass density ([2]; 323.15 K, x2 = 0.2): 887.8 ± 3.6 kg/m3
- mass density ([2]; 323.15 K, x2 = 0.4): 880 ± 3.5 kg/m3
- mass density ([2]; 323.15 K, x2 = 0.6): 872.2 ± 3.5 kg/m3
- mass density ([2]; 323.15 K, x2 = 0.8): 864.6 ± 3.5 kg/m3
- viscosity ([2]; 333.15 K, x2 = 0): 3.36 ± 0.07 mPa·s
- viscosity ([2]; 333.15 K, x2 = 0.2): 2.88 ± 0.06 mPa·s
- viscosity ([2]; 333.15 K, x2 = 0.4): 2.48 ± 0.05 mPa·s
- viscosity ([2]; 333.15 K, x2 = 0.6): 2.14 ± 0.05 mPa·s
- viscosity ([2]; 333.15 K, x2 = 0.8): 1.79 ± 0.04 mPa·s
- mass density ([2]; 333.15 K, x2 = 0): 887.2 ± 3.6 kg/m3
- mass density ([2]; 333.15 K, x2 = 0.2): 880.6 ± 3.5 kg/m3
- mass density ([2]; 333.15 K, x2 = 0.4): 872.1 ± 3.5 kg/m3
- mass density ([2]; 333.15 K, x2 = 0.6): 864.3 ± 3.5 kg/m3
- mass density ([2]; 333.15 K, x2 = 0.8): 856.4 ± 3.4 kg/m3

SMILES: CCNCCO [2-(ethylamino)ethanol] + O
- viscosity ([2]; 293.15 K, x2 = 0): 15.39 ± 0.34 mPa·s
- viscosity ([2]; 293.15 K, x2 = 0.2): 23.82 ± 0.53 mPa·s
- viscosity ([2]; 293.15 K, x2 = 0.4): 31.73 ± 0.68 mPa·s
- viscosity ([2]; 293.15 K, x2 = 0.6): 31.02 ± 0.66 mPa·s
- viscosity ([2]; 293.15 K, x2 = 0.8): 13.83 ± 0.35 mPa·s
- mass density ([2]; 293.15 K, x2 = 0): 916.8 ± 3.7 kg/m3
- mass density ([2]; 293.15 K, x2 = 0.2): 929.5 ± 3.7 kg/m3
- mass density ([2]; 293.15 K, x2 = 0.4): 943.1 ± 3.8 kg/m3
- mass density ([2]; 293.15 K, x2 = 0.6): 961.6 ± 3.9 kg/m3
- mass density ([2]; 293.15 K, x2 = 0.8): 985.7 ± 3.9 kg/m3
- viscosity ([2]; 303.15 K, x2 = 0): 9.65 ± 0.22 mPa·s
- viscosity ([2]; 303.15 K, x2 = 0.2): 14.54 ± 0.33 mPa·s
- viscosity ([2]; 303.15 K, x2 = 0.4): 18.56 ± 0.43 mPa·s
- viscosity ([2]; 303.15 K, x2 = 0.6): 17.34 ± 0.41 mPa·s
- viscosity ([2]; 303.15 K, x2 = 0.8): 8.34 ± 0.21 mPa·s
- mass density ([2]; 303.15 K, x2 = 0): 909.7 ± 3.6 kg/m3
- mass density ([2]; 303.15 K, x2 = 0.2): 922.4 ± 3.7 kg/m3
- mass density ([2]; 303.15 K, x2 = 0.4): 936.1 ± 3.8 kg/m3
- mass density ([2]; 303.15 K, x2 = 0.6): 954.8 ± 3.8 kg/m3
- mass density ([2]; 303.15 K, x2 = 0.8): 979.5 ± 3.9 kg/m3
- viscosity ([2]; 313.15 K, x2 = 0): 6.64 ± 0.15 mPa·s
- viscosity ([2]; 313.15 K, x2 = 0.2): 9.29 ± 0.21 mPa·s
- viscosity ([2]; 313.15 K, x2 = 0.4): 11.41 ± 0.26 mPa·s
- viscosity ([2]; 313.15 K, x2 = 0.6): 10.71 ± 0.24 mPa·s
- viscosity ([2]; 313.15 K, x2 = 0.8): 5.44 ± 0.13 mPa·s
- mass density ([2]; 313.15 K, x2 = 0): 901.3 ± 3.6 kg/m3
- mass density ([2]; 313.15 K, x2 = 0.2): 914 ± 3.7 kg/m3
- mass density ([2]; 313.15 K, x2 = 0.4): 927.8 ± 3.7 kg/m3
- mass density ([2]; 313.15 K, x2 = 0.6): 946 ± 3.8 kg/m3
- mass density ([2]; 313.15 K, x2 = 0.8): 972.5 ± 3.9 kg/m3
- viscosity ([2]; 323.15 K, x2 = 0): 4.53 ± 0.1 mPa·s
- viscosity ([2]; 323.15 K, x2 = 0.2): 6.23 ± 0.14 mPa·s
- viscosity ([2]; 323.15 K, x2 = 0.4): 7.3 ± 0.16 mPa·s
- viscosity ([2]; 323.15 K, x2 = 0.6): 7.08 ± 0.16 mPa·s
- viscosity ([2]; 323.15 K, x2 = 0.8): 3.73 ± 0.09 mPa·s
- mass density ([2]; 323.15 K, x2 = 0): 894.7 ± 3.6 kg/m3
- mass density ([2]; 323.15 K, x2 = 0.2): 907.4 ± 3.6 kg/m3
- mass density ([2]; 323.15 K, x2 = 0.4): 920.7 ± 3.7 kg/m3
- mass density ([2]; 323.15 K, x2 = 0.6): 938.7 ± 3.8 kg/m3
- mass density ([2]; 323.15 K, x2 = 0.8): 963 ± 3.9 kg/m3
- viscosity ([2]; 333.15 K, x2 = 0): 3.36 ± 0.07 mPa·s
- viscosity ([2]; 333.15 K, x2 = 0.2): 4.52 ± 0.1 mPa·s
- viscosity ([2]; 333.15 K, x2 = 0.4): 5.03 ± 0.12 mPa·s
- viscosity ([2]; 333.15 K, x2 = 0.6): 4.68 ± 0.11 mPa·s
- viscosity ([2]; 333.15 K, x2 = 0.8): 2.69 ± 0.06 mPa·s
- mass density ([2]; 333.15 K, x2 = 0): 887.2 ± 3.6 kg/m3
- mass density ([2]; 333.15 K, x2 = 0.2): 898.6 ± 3.6 kg/m3
- mass density ([2]; 333.15 K, x2 = 0.4): 912 ± 3.7 kg/m3
- mass density ([2]; 333.15 K, x2 = 0.6): 931.1 ± 3.7 kg/m3
- mass density ([2]; 333.15 K, x2 = 0.8): 955.6 ± 3.8 kg/m3

SMILES: CCN(CC)CCO [(diethylamino)ethanol]
- viscosity ([1]; 293.15 K): 4.81 ± 0.1 mPa·s
- mass density ([1]; 293.15 K): 883.5 ± 3.5 kg/m3
- viscosity ([1]; 303.15 K): 3.37 ± 0.07 mPa·s
- mass density ([1]; 303.15 K): 875.1 ± 3.5 kg/m3
- viscosity ([1]; 313.15 K): 2.46 ± 0.05 mPa·s
- mass density ([1]; 313.15 K): 866.2 ± 3.5 kg/m3
- viscosity ([1]; 323.15 K): 1.86 ± 0.04 mPa·s
- mass density ([1]; 323.15 K): 857.5 ± 3.4 kg/m3
- viscosity ([1]; 333.15 K): 1.46 ± 0.03 mPa·s
- mass density ([1]; 333.15 K): 849.2 ± 3.4 kg/m3

SMILES: CCN(CC)CCO [(diethylamino)ethanol] + CCNCCO
- viscosity ([2]; 293.15 K, x1 = 1): 4.81 ± 0.1 mPa·s
- mass density ([2]; 293.15 K, x1 = 1): 883.5 ± 3.5 kg/m3
- viscosity ([2]; 303.15 K, x1 = 1): 3.37 ± 0.07 mPa·s
- mass density ([2]; 303.15 K, x1 = 1): 875.1 ± 3.5 kg/m3
- viscosity ([2]; 313.15 K, x1 = 1): 2.46 ± 0.05 mPa·s
- mass density ([2]; 313.15 K, x1 = 1): 866.2 ± 3.5 kg/m3
- viscosity ([2]; 323.15 K, x1 = 1): 1.86 ± 0.04 mPa·s
- mass density ([2]; 323.15 K, x1 = 1): 857.5 ± 3.4 kg/m3
- viscosity ([2]; 333.15 K, x1 = 1): 1.46 ± 0.03 mPa·s
- mass density ([2]; 333.15 K, x1 = 1): 849.2 ± 3.4 kg/m3

SMILES: O [water] + CCNCCO
- viscosity ([2]; 293.15 K, x1 = 1): 1.01 ± 0.02 mPa·s
- mass density ([2]; 293.15 K, x1 = 1): 998 ± 4 kg/m3
- viscosity ([2]; 303.15 K, x1 = 1): 0.8 ± 0.02 mPa·s
- mass density ([2]; 303.15 K, x1 = 1): 995.1 ± 4 kg/m3
- viscosity ([2]; 313.15 K, x1 = 1): 0.65 ± 0.01 mPa·s
- viscosity ([2]; 323.15 K, x1 = 1): 0.55 ± 0.01 mPa·s
- mass density ([2]; 323.15 K, x1 = 1): 989.2 ± 4 kg/m3
- viscosity ([2]; 333.15 K, x1 = 1): 0.47 ± 0.01 mPa·s
- mass density ([2]; 333.15 K, x1 = 1): 985 ± 3.9 kg/m3
